Biological target: CDK2-Cyclin A (Homo sapiens, UniProt P24941)
Assay: ESI-MS of covalent adduct
Design: made in house; host or cells: Escherichia coli (CDK2 co-expressed with S. cerevisiae CAK1)
Settings: wild-type CDK2/cyclin A, overnight incubation, vs control
Method: To determine whether NU6300 binds covalently to CDK2, recombinant CDK2/cyclin A was incubated overnight with NU6300 and then analyzed by electrospray ionization mass spectrometry (ESI-MS) (Figure S1A). […]
Protein expression and purification
Site-directed mutagenesis of CDK2 was performed using the QuikChange II kit (Stratagene) following the manufacturer’s instructions and verified by DNA sequencing.
Wild-type CDK2 phosphorylated at Thr160, untagged human cyclin A2 (residues 174-432), S. cerevisiae GST–CAK, GST–3C-protease and GST–pRb (residues 792–928) were expressed and purified as previously described (Brown et al., 1999a; Brown et al., 1999b; Welburn and Endicott, 2005). GST-CDK2 mutants were expressed and purified as described (Welburn and Endicott, 2005) and subsequently phosphorylated in vitro by GST-CAK essentially as described in (Morris et al., 2002) except that multiple CAK aliquots were required to enhance the levels of CDK2 Thr160 phosphorylation. […]
CDK2/cyclin A (200 µM) was incubated overnight with 1 mM inhibitor or DMSO, and then dialysed for 8 h with regular replacement of dialysis buffer into HEPES-buffered saline (50 mM HEPES, pH 7.5, 250 mM NaCl, 0.02% MTG). […] Reactions were stopped by addition of SDS-PAGE loading buffer and analyzed by SDS-PAGE. […]

Compound: C=CS(=O)(=O)c1ccc(Nc2nc(OCC3CCCCC3)c3nc[nH]c3n2)cc1 [NU6300, 6-(cyclohexylmethoxy)-N-(4-(vinylsulfonyl)phenyl)-9H-purin-2-amine]
- increase in the mass of CDK2 (ESI-MS): 414 Da
